Molecules are shown by their SMILES. Values after ≈ are worked out from the molar mass of the structure shown. Like-named read-outs stand apart in the source and are kept apart here.

Details of data set [1]: method as in PMID 32511917. The settings on record: PBS pH = 7; cited from earlier work.
Details of data set [2]: method as in PMID 32511917. The settings on record: cited from earlier work.
For data set [3] the following is noted: mouse PO 5 mg/kg; cited from earlier work.
The subject of a further data set is A2A. As to conditions: 10 μM; cited from earlier work.
On the set-up of data set [4]: method as in PMID 32511917. As to conditions: cited from earlier work. This is another data set of the same source.
Another data set concerns COLO 320DM cells. As to conditions: cited from earlier work.
On the set-up of data set [5]: method as in PMID 32511917. As to conditions: cited from earlier work. The source holds these as a separate data set.
Data set [6] has as its system Cerep Safety panel 44 targets. Further details: method as in PMID 32511917. As to conditions: 10 μM; cited from earlier work.
For data set [7], the system named is WNT/β-catenin signaling. As to conditions: cited from earlier work.
The next data set concerns Caco-2. As to conditions: cited from earlier work.
Data set [8] in a line: mouse peroral pharmacokinetic analysis. It counts as in vivo. As to conditions: mouse PO 5 mg/kg; for AUC(0-inf) at 24 h / AUC(0-t) at 24 h / Cmax at 24 h / Tmax at 24 h / half-life at 24 h / MRT inf at 24 h: IRC, in vivo; for MRT inf at 24 h: read-out: MRT 0 → ∞. Here is the method: The pharmacokinetic analyses in mice were performed according to the standard protocols of Medicilon as previously described[21] following approval by local animal experiment authorities (Shanghai, China) and in compliance with FELASA guidelines and recommendations. Three IRC mice were used per treatment group: 5 mg/kg 24 in 5% DMSO, 50% PEG400 (both Sigma-Aldrich), and 45% saline as vehicle.

In a further data set the target is T1, TNKS2 (Homo sapiens, UniProt Q9H2K2).
T1 construct: TNKS2 (residues 873–1162); made in house
T1 sequence (Q9H2K2 873-1162): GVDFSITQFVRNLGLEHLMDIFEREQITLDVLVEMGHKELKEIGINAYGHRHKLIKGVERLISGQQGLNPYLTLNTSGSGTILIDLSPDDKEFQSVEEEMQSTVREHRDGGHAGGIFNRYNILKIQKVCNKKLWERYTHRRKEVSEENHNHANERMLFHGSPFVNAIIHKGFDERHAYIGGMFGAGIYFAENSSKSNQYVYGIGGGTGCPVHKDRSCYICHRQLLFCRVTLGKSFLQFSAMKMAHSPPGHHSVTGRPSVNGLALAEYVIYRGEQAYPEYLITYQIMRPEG
The data set can be described thus: TNKS2 biochemical assay (unreacted NAD+ fluorescence). As to conditions: TNKS2 5 nM, 500 nM NAD+, 20 h; quadruplicates; 95% confidence intervals in parentheses; 24: averages of multiple independent measurements; read-out: IC50 TNKS2. The procedure: New compounds were prepared in half-log dilution series, and the reactions were carried out in quadruplicates with protein and compound controls to exclude the effect of compound autofluorescence. All reactions were performed at ambient temperature. TNKS1 (20 nM) or TNKS2 (5 nM) was incubated for 20 h in assay buffer (50 mM Bis-Tris propane (BTP), pH 7.0, 0.5 mM Tris(2-carboxyethyl)phosphine (TCEP), 0.01% Triton X-100) with compound and 10 μM or 500 nM NAD^+, respectively.

A short description of another data set: kinetic solubility. In kind it is physicochemical. The settings on record: PBS pH = 7. The procedure: Kinetic solubility, microsomal stability, and plasma stability were determined following our internal protocol (Symeres). The Caco-2 and PPB determinations were performed by Cyprotex.
Data set [9] has as its system WNT/β-catenin signaling. Nature of the data set: cellular (HEK293) WNT/β-catenin signaling luciferase reporter assay. In kind it is cell-based, human. As to conditions: triplicates, 24: averages of multiple independent measurements. A general note: Reporter assays use an easily measured gene product as a stand-in for the process of interest.
Where [10] appears, read: Homo sapiens, HEK293, read-out: IC50 HEK293, HEK293 WNT/β-catenin signaling reporter assay.
Where [11] appears, read: read-out: IC50 HEK293, HEK293 WNT/β-catenin signaling reporter assay.

One may read the GI50 as the concentration at which growth is held to half of that of the control. As to `CCOc1ccc(-c2nnc([C@H]3C[C@H](NC(=O)c4ccccn4)C3)n2-c2ccccc2F)nc1` [Compound 1], in data set [1], the kinetic solubility was more than 80 µM. The “microsomal stability mouse CLint” value in [2] (mouse) is 27 μL/min/mg protein. Also, the CL in [3] is 34.8 mL/min/kg. The “Cerep Safety panel inhibition of A2A” value in the data set on A2A was 53%. Further, in [4], the Ames test result was “nongenotoxic”. Also, in the data set on COLO 320DM cells, the “COLO 320DM cells GI25” value is listed as 94 nM and the GI50 is 650 nM. For the same compound, the “microsomal stability human CLint” value in [5] is less than 5 μL/min/mg protein. For the same compound, the “Cerep Safety panel 44 targets (overall result)” value in data set [6] is “clean”. For the same compound, in the data set with WNT/β-catenin signaling [7] (HEK293 WNT/β-catenin signaling reporter assay), the IC50 was 19 nM. Further, the “HEK293 reporter assay pIC50 ± SEM” value in the data set with WNT/β-catenin signaling [7] was 19 (7.75 ± 0.067). Further, in the data set on Caco-2, the “Caco-2 A–B: Papp” value is given as 39.5 10^–6 cm/s.

Turning to `CCOc1ccc(-c2nnc([C@H]3C[C@H](NC(=O)c4ccnc5cccnc45)C3)n2-c2ccccc2F)nc1` [Compound 15a], the “metabolic stability in mouse microsomes” value in [2] was “high metabolic instability”.

For orientation: AUC(0-inf) means total exposure, with the tail of the curve extrapolated. The AUC(0-t) is the area under the concentration-time curve up to a stated or last time point. For orientation: Cmax means the highest concentration seen after dosing. Broadly, the Tmax is the time at which the peak concentration occurs. In general, half-life refers to the time needed for the level to fall by half in the phase considered. Read a high half-life as slow decline. What is called kinetic solubility is the concentration staying in solution when a stock, usually in DMSO, is diluted into the medium. As for `CCOc1ccc(-c2nnc([C@H]3C[C@H](NC(=O)c4ccnc5cc(F)cnc45)C3)n2-c2ccncc2)nc1` [Compound 18b, N-(trans-3-(5-(5-Ethoxypyridin-2-yl)-4-(pyridin-4-yl)-4H-1,2,4-triazol-3-yl)cyclobutyl)-7-fluoro-1,5-naphthyridine-4-carboxamide], in data set [8], the AUC(0-inf) at 24 h worked out at 322 ng·h/mL, the AUC(0-t) at 24 h stood at 319 ng·h/mL, the concentration peaked (Cmax at 24 h) at 285 ng/mL and the Tmax at 24 h is 15 min. In data set [8], the half-life at 24 h was 60 min, the MRT inf at 24 h was 93.6 min, the CL was found to be 260 mL/min/kg and the Vd came out at 22.4 L/kg. The IC50 at TNKS2 was determined as 2.9 nM. The compound also gave a kinetic solubility in “kinetic solubility” of more than 80 µM. Moreover, the IC50 in the data set with WNT/β-catenin signaling [9] (setting [10]) amounted to 6 nM. Besides, in the data set on WNT/β-catenin signaling [9] (setting [11]), the IC50 was determined as 6.4 nM.

As to `CCOc1ccc(-c2nnc([C@H]3C[C@H](NC(=O)c4ccnc5cccnc45)C3)n2-c2ccc(C)s2)nc1` [Compound 22a, N-(trans-3-(5-(5-Ethoxypyridin-2-yl)-4-(5-methylthiophen-2-yl)-4H-1,2,4-triazol-3-yl)cyclobutyl)-1,5-naphthyridine-4-carboxamide], in data set [8], the AUC(0-inf) at 24 h was found to be 547 ng·h/mL, the AUC(0-t) at 24 h was 543 ng·h/mL, the Cmax at 24 h was found to be 779 ng/mL and the Tmax at 24 h amounted to 15 min. In data set [8], the half-life at 24 h is 70.2 min, the MRT inf at 24 h turned out to be 83.4 min, the CL was 152 mL/min/kg and the Vd came to 15.5 L/kg. In addition, the IC50 at TNKS2 turned out to be 0.73 nM. The compound further showed a kinetic solubility at 1 h in “kinetic solubility” of 50 µM (≈ 25.6 µg/mL). Besides, the IC50 with WNT/β-catenin signaling [9] (setting [10]) came to 0.81 nM.

For `CCOc1ccc(-c2nnc([C@H]3C[C@H](NC(=O)c4cccc5nc(C)cnc45)C3)n2-c2ccccc2F)nc1` [Compound 27, N-(trans-3-(5-(5-Ethoxypyridin-2-yl)-4-(2-fluorophenyl)-4H-1,2,4-triazol-3-yl)cyclobutyl)-2-methylquinoxaline-5-carboxamide], the IC50 on TNKS2 is 1.1 nM; in the data set with WNT/β-catenin signaling [9] (setting [10]), 2.4 nM.

Regarding `CCOc1ccc(-c2nnc([C@H]3C[C@H](NC(=O)c4cccc5nc(C)c(C)nc45)C3)n2-c2ccccc2F)nc1` [Compound 28, N-(trans-3-(5-(5-Ethoxypyridin-2-yl)-4-(2-fluorophenyl)-4H-1,2,4-triazol-3-yl)cyclobutyl)-2,3-dimethylquinoxaline-5-carboxamide], the results for the IC50 on TNKS2 and in the data set with WNT/β-catenin signaling [9] (setting [10]) were 2.6 nM and 4.3 nM, respectively.

Regarding `O=C(N[C@H]1C[C@H](c2nnc(-c3ccc(OC(F)F)cn3)n2-c2ccccc2F)C1)c1cccc2nccnc12` [Compound 29a, N-(trans-3-(5-(5-(Difluoromethoxy)pyridin-2-yl)-4-(2-fluorophenyl)-4H-1,2,4-triazol-3-yl)cyclobutyl)quinoxaline-5-carboxamide], the IC50 worked out at 1.9 nM at TNKS2 and 1.2 nM in the data set with WNT/β-catenin signaling [9] (setting [10]).

Regarding `O=C(N[C@H]1C[C@H](c2nnc(-c3ccccn3)n2-c2ccccc2F)C1)c1cccc2nccnc12` [Compound 30a, N-(trans-3-(4-(2-Fluorophenyl)-5-(pyridin-2-yl)-4H-1,2,4-triazol-3-yl)cyclobutyl)quinoxaline-5-carboxamide], the IC50 on TNKS2 is 1.6 nM; with WNT/β-catenin signaling [9] (setting [10]) it was 0.29 nM; in the data set on WNT/β-catenin signaling [9] (setting [11]), 0.286 nM.

On to `Cc1cccc(-c2nnc([C@H]3C[C@H](NC(=O)c4cccc5nccnc45)C3)n2-c2ccccc2F)n1` [Compound 31a, N-(trans-3-(4-(2-Fluorophenyl)-5-(6-methylpyridin-2-yl)-4H-1,2,4-triazol-3-yl)cyclobutyl)quinoxaline-5-carboxamide], for which, in [8], the AUC(0-inf) at 24 h is 3400 ng·h/mL, the AUC(0-t) at 24 h worked out at 3400 ng·h/mL, the highest level (Cmax at 24 h) was 2770 ng/mL and the Tmax at 24 h is 15 min. For the same compound, in [8], the half-life at 24 h was 45.6 min, the MRT inf at 24 h stood at 74.4 min, the CL was 24.5 mL/min/kg and the Vd was determined as 1.61 L/kg. Also, at TNKS2, the IC50 turned out to be 1.7 nM. This compound also gave a solubility (kinetic) in “kinetic solubility” of more than 80 µM. In addition, the IC50 with WNT/β-catenin signaling [9] (setting [10]) stood at 1.5 nM.

As to `Cc1cccc(-c2nnc([C@H]3C[C@H](NC(=O)c4cc(F)cc5nccnc45)C3)n2-c2ccccc2F)n1` [Compound 31b, N-(trans-3-(4-(2-Fluorophenyl)-5-(6-methylpyridin-2-yl)-4H-1,2,4-triazol-3-yl)cyclobutyl)-7-fluoroquinoxaline-5-carboxamide], in data set [8], the AUC(0-inf) at 24 h was determined as 5320 ng·h/mL, the area under the curve AUC(0-t) at 24 h worked out at 5310 ng·h/mL, the highest level (Cmax at 24 h) was 5800 ng/mL and the Tmax at 24 h stood at 15 min. For the same compound, in data set [8], the half-life at 24 h was 35.4 min, the MRT inf at 24 h stood at 88.2 min, the CL is 15.7 mL/min/kg and the Vd came to 0.80 L/kg. On TNKS2, the IC50 stood at 1.6 nM. The compound further showed a kinetic solubility at 1 h in “kinetic solubility” of 13 µM (≈ 6.47 µg/mL). Also, the IC50 with WNT/β-catenin signaling [9] (setting [10]) was found to be 0.17 nM. The IC50 with WNT/β-catenin signaling [9] (setting [11]) was 0.169 nM.

(Values after PMC8713164, “Development of a 1,2,4-Triazole-Based Lead Tankyrase Inhibitor: Part II” (Journal of Medicinal Chemistry, 2021).)
